Assay results taken from US20100261679A1 (priority 2007, published 2010).

Assays:
[1] = target: T1, cytoplasmic domain of the human CSF-1R (Homo sapiens, UniProt P07333); test: In vitro kinase assay for CSF-1R (AlphaScreen); type: biochemical; conditions: tested at about 1 μM
T1 construct: Recombinant protein corresponding to the cytoplasmic domain of the human CSF-1R; purchased Invitrogen Corporation, Carlsbad, Calif; U.S.A. PV3249
T1 sequence (P07333 539-972 limits assumed): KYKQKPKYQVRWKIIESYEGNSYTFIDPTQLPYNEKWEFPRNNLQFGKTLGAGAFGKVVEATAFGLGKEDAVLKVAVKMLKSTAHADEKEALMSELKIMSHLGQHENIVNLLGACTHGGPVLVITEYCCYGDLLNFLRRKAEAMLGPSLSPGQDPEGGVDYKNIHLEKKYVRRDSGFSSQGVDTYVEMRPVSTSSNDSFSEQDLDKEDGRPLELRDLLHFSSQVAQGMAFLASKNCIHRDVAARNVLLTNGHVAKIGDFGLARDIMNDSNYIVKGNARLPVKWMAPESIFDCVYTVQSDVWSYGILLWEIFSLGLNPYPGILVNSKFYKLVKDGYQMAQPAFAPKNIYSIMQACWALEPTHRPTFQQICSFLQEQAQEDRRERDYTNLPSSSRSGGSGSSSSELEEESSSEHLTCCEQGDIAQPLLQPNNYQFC
Procedure: The kinase activity of various protein tyrosine kinases can be measured by providing ATP and a suitable peptide or protein tyrosine-containing substrate, and assaying the transfer of phosphate moiety to the tyrosine residue. Recombinant protein corresponding to the cytoplasmic domain of the human CSF-1R was purchased from Invitrogen Corporation, Carlsbad, Calif. U.S.A. (#PV3249). For each assay, test compounds were serially diluted, starting at 25 μM with 3 fold dilutions, in DMSO in 384 well plates then mixed with an appropriate kinase reaction buffer consisting of 50 mM Hepes, 5 mM MgCl2, 10 mM MnCl2, 0.1% BSA, pH 7.5, 1.0 mM dithiothreitol, 0.01% Tween 80 plus […]. Kinase protein and an appropriate biotinylated peptide substrate at 50 nM were added to give a final volume of 20 μL, reactions were incubated for 2 hours at room temperature and stopped by the addition of 10 μL of 45 mM EDTA, 50 mM Hepes pH 7.5. Added to the stopped reaction mix was 30 μL of PT66 Alphascreen beads (Perkin Elmer, Boston, Mass., U.S.A.). The reaction was incubated overnight and read on the Envision (Perkin Elmer). Phosphorylated peptide product was measured with the AlphaScreen system (Perkin Elmer) using acceptor beads coated with anti-phosphotyrosine antibody PT66 and donor beads coated with streptavidin that emit a fluorescent signal at the 520-620 nm emission wave length if in close proximity. The concentration of each compound for 50% inhibition (IC50) was calculated by non-linear regression using XL Fit data analysis software.
CSF-1R kinase was assayed in 50 mM Hepes pH 7.0, 5 mM MgCl2, 10 mM MnCl2, 1 mM DTT, 1 mg/mL BSA, 1.0 μM ATP, and 0.05 μM biotin-GGGGRPRAATF-NH2 (SEQ ID NO:2) peptide substrate. CSF-1R kinase was added at final concentration of 4 nM.

cKIT = target: T2, cKIT (Homo sapiens, UniProt P10721); test: Inhibition of cKIT kinase in an in vitro biochemical assay (alphascreen); conditions: tested at about 1 μM
T2 construct: The kinase domain of cKIT was assayed in 50 mM Hepes; purchased Upstate 14-559
T2 sequence (P10721 589-937 limits assumed): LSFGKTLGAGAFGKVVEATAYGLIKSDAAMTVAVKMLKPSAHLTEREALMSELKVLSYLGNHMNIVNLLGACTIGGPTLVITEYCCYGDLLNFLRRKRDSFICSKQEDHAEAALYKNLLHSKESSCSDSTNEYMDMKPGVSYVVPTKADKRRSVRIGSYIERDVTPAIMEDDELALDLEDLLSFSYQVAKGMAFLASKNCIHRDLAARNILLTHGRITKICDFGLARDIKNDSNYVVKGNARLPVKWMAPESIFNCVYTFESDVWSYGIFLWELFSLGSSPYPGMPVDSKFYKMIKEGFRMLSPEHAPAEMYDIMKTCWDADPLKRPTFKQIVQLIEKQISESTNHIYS
Procedure: (§1) The IC50 values for the inhibition of RTKs were determined in the alphascreen format measuring the inhibition by compound of phosphate transfer to a substrate by the respective enzyme. Briefly, the respective RTK domain purchased as human recombinant protein (cKIT Upstate #14-559, PDGFRb Invitrogen #P3082) were incubated with serial dilutions of compound in the presence of substrate and ATP concentrations within 3 times the Km of the enzyme.
(§2) The kinase domain of cKIT was assayed in 50 mM Hepes, pH=7.5, 5 mM MgCl2, 10 mM MnCl2, 1 mM DTT, 0.1% BSA with 0.06 uM biotinylated peptide substrate (GGLFDDPSYVNVQNL-NH2) and 15 μM ATP (ATP KM apparent =15 μM). The kinase domain of PDGFRβ was assayed in 50 mM Hepes, pH=7.5, 20 mM MgCl2, 1 mM DTT, 0.1% BSA with 0.1 μM biotinylated peptide substrate (GGLFDDPSYVNVQNL-NH2) and 10 μM ATP (ATP KM apparent=25 μM). Reactions were incubated at room temperature for 3 to 4 hr and stopped with buffer (20 mM EDTA, 0.01% Tween-20 for both PDGFRβ and cKIT). Alphascreen PY20 beads were added to the stopped cKIT reactions and PY20 Ab/Protein A Alphascreen beads were added to the PDGFRβ stopped reactions. Both reactions were incubated overnight and read on the Alphascreen reader. The concentration of compound for 50% inhibition (IC50) was calculated employing non-linear regression using XL-Fit data analysis software. As a control compound, staurosporine is run in every assay and a Z′>0.5 is required to validate results.

PDGFRb = target: T3, PDGFRb (Homo sapiens, UniProt P09619); test: Inhibition of PDGFRb kinase in an in vitro biochemical assay (alphascreen); conditions: tested at about 1 μM; read-out: PDGFR % inhibition at 1 μM
T3 construct: The kinase domain of PDGFRβ was assayed in 50 mM Hepes; purchased Invitrogen P3082
T3 sequence (P09619 600-962 limits assumed): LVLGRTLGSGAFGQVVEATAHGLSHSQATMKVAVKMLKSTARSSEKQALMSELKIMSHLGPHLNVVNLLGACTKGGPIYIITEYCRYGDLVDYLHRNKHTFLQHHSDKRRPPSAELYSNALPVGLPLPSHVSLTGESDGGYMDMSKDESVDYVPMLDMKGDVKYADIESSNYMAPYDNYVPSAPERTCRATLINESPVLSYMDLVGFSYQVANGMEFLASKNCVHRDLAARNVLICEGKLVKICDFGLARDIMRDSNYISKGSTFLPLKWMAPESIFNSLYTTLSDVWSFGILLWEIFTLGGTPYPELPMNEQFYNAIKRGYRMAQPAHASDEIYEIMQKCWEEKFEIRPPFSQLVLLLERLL
Procedure: as §1, §2

inhibition at 1 µM [1] [%] | inhibition at 1 µM (cKIT) [%] | inhibition at 1 µM (PDGFRb) [%] | SMILES
99 | 38 | 12 | CCOc1ccccc1Nc1ncc2cc(Oc3ccnc(C(=O)NC)c3)ccc2n1 [Example 45, 4-(2-(2-ethoxyphenylamino)quinazolin-6-yloxy)-N-methylpicolinamide]
98 | 31 | 16 | CNC(=O)c1cc(Oc2ccc3nc(N[C@@H](CO)C4CCCCC4)ccc3c2)ccn1 [Example 7]
96 | 13 | < 1 | CNC(=O)c1cc(Oc2ccc3nc(Nc4ccccc4CN4CCOCC4)ncc3c2)ccn1 [Example 67, N-methyl-4-(2-(2-(morpholinomethyl)phenylamino)quinazolin-6-yloxy)picolinamide]
100 | 50 | 26 | CNC(=O)c1cc(Oc2ccc3nc(N[C@H](C)C4CCCCC4)ncc3c2)ccn1 [Example 15, (R)-4-(2-(1-cyclohexylethylamino)quinazolin-6-yloxy)-N-methylpicolinamide]
99 | 23 | 21 | CNC(=O)c1cc(Oc2ccc3nc(N[C@@H]4CCCC[C@H]4O)ncc3c2)ccn1 [Example 11]
84 | 14 | < 1 | NC(=O)c1cc(Oc2ccc3nc(Nc4ccccc4N4CCOCC4)ncc3c2)ccn1 [Example 33, 4-(2-(2-morpholinophenylamino)quinazolin-6-yloxy)picolinamide]
100 | 51 | 33 | CNC(=O)c1cc(Oc2ccc3nc(N[C@@H]4CCCC[C@H]4O)ccc3c2)ccn1 [Example 1]
95 | 11 | 13 | CNC(=O)c1cc(Oc2ccc3nc(Nc4ccccc4OCCO)ncc3c2)ccn1 [Example 70, 4-(2-(2-(2-hydroxyethoxy)phenylamino)quinazolin-6-yloxy)-N-methylpicolinamide]
83 | < 1 | 9 | CNC(=O)c1cc(Oc2ccc3nc(NCC4CC4)ncc3c2)ccn1 [Example 53, 4-(2-(cyclopropylmethylamino)quinazolin-6-yloxy)-N-methylpicolinamide]
97 | 13 | < 1 | CNC(=O)c1cc(Nc2ccc3nc(N[C@@H]4CCCC[C@H]4O)sc3c2)ccn1 [Example 79, 4-(2-((1R,2R)-2-hydroxycyclohexylamino)benzo[d]thiazol-6-ylamino)-N-methylpicolinamide]
97 | 17 | 12 | CNC(=O)c1cc(Oc2ccc3nc(NC(=O)NC4CCCCC4)ncc3c2)ccn1 [Example 60, 4-(2-(3-cyclohexylureido)quinazolin-6-yloxy)-N-methylpicolinamide]
65 | 47 | 20 | CNC(=O)c1cc(Oc2ccc3nc(Nc4ccccc4N4CCN(C)CC4)ncc3c2)ccn1 [Example 54, N-methyl-4-(2-(2-(4-methylpiperazin-1-yl)phenylamino)quinazolin-6-yloxy)picolinamide]
71 | 7 | < 1 | CNC(=O)c1cc(Oc2ccc3nc(NCCN4CCOCC4)ncc3c2)ccn1 [Example 35, N-methyl-4-(2-(2-morpholinoethylamino)quinazolin-6-yloxy)picolinamide]
88 | 28 | 24 | CNC(=O)c1cc(Oc2ccc3nc(N[C@H](CO)Cc4ccccc4)ncc3c2)ccn1 [Example 13]
